Assay results published in US6900021B1, “Microfluidic system and methods of use” (The University of Alberta, priority 1997, dated 2005).
Values belong to the compound of their own block, whether it stands above or below them.

How the values were obtained:
human lymphocytes [1] = test: Calcium influx assay (stop flow, Fluo-3 AM fluorescence) with activator; type: cell-based; settings: single lymphocyte
Text: Calcium influx is involved in major cell functions and responses of lymphocytes. In this assay, the calcium ion influx into the lymphocytes is induced by a calcium releasing agent, calcimycin (A23187, calcium ionophore). The rise in the concentration of free intracellular calcium ions results in an increase in fluorescent signal from cells pretreated with a fluorescing agent. The kinetic results of calcium influx may be studied with the stop flow method in the microfluidic device.
There are several steps in the study of the process of calcium influx. First, an activator, calcimycin (A23187 calcium ionophore) and the calcium ion complex must adsorb on the cell surface. Second, the complex has to diffuse through the cell membrane. Third, once inside the cytosol, dissociation between the A23187 and calcium ion has to take place. Finally, a fluorescing agent, FLUO-3 AM, complexes with the released calcium and produces emitted light that can be detected (fluorescence).
For measurement of calcium influx, a calcium-specific fluorophore, Fluo-3 AM (Molecular Proves), was preloaded into purified human lymphocytes as acetoxymethyl (AM) ester. […]
A fluorescence microscope equipped with a 25× objective and a CCD camera was positioned over the detection zone, point “B” in FIG. 8, allowed the observation of cells as they passed the detection zone. […]

canine erythrocytes = test: Lysis of canine erythrocytes by SDS in the microchip; type: cell-based, dog
Procedure: A phosphate buffer, 40 mM each of NA2HPO4 and KH2PO4 (BDH analytical grade) was adjusted to pH 7.4 with either NaOH or HCl and used as an isotonic buffer for canine erythrocytes. (The plasma concentrations of […] in canine plasma are 94 and 6 mM. respectively. (8,9) Assuming a monoanion as the counterion gives as osmolarity of 200 mM, equal to that of the buffer prepared.) A hypotonic solvent, deionized water, was used to prepare yeast or E. coli cell suspensions. Sodium dodecyl sulfate (SDS, Serva, analytical grade) was prepared at 3 mM (0.1 wt %) in deionized water. Other chemicals were reagent grade and were used without further purification.
Red blood cells of a healthy dog were obtained from Heritage Medical Research Centre (Edmonton, AB, Canada). Blood samples were collected using EDTA as the anticoagulant. These were centrifuged for separation into various blood components. After removal of the plasma and buffy coat, the erythrocytes were isolated as a cell pellet. A citrate-phosphate-dextrose (CPD) solution, (9), used to store human whole blood for enhancement of the poststorage viability of red cells, (10), was adapted for handling and storing the canine cells by addition of KCl and NaCl as well. The solutions contained 2.5 mM dextrose, 1.6 mM sodium citrate, 0.28 mM citric acid, 0.15 mM Na2HPO4, 94 mM NaCl, and 6.0 mM KCl. An erythrocyte suspension of 5% hematocrit was used. The cells were washed several times with the isotonic phosphate buffer to remove the storage buffer, using a Sanyo MSE MicroCentaur centrifuge.
The visual cell lysis experiment was performed in the COPI device (FIG. 5A). The B reservoir, which contained erythrocytes and the S reservoir, containing 3 mM SDS, were both at +150 V, while the SW reservoir was at ground. The potential at BW was floating.
For the cell lysis experiment using PMT detection, the PCRD2 device (FIG. 5B) was used. Cells were introduced into the S reservoir to which 400 V was applied, versus ground on the SW reservoir. A 3 mM SDS solution was introduced into the B reservoir. […]

human lymphocytes [2] = test: Calcium influx assay with lymphocyte inhibitor; type: cell-based
Procedure: The microfluidic device and human lymphocytes were prepared as described in Example III.
With reference to FIG. 8, 100 μM of verapamil, an inhibitor, was introduced into channel #1; buffer was introduced into channel #2; leukocytes were introduced into channel #3; and calcium activator A23187 was introduced into channel #4.
The device was run as described in Example III above. Verapamil was introduced to the lymphocytes at point “A” intersection of the device (FIG. 8). The lymphocytes were incubated with verapamil for four minutes while transported through the main channel to the mixing point “B”.

E-selectin [3] = molecular target: T1, E-selectin (Homo sapiens, UniProt P16581); test: Cell rolling of neutrophils on E-selectin coated microchip; type: cell-based; settings: concentration not given
T1 sequence (P16581 22-610): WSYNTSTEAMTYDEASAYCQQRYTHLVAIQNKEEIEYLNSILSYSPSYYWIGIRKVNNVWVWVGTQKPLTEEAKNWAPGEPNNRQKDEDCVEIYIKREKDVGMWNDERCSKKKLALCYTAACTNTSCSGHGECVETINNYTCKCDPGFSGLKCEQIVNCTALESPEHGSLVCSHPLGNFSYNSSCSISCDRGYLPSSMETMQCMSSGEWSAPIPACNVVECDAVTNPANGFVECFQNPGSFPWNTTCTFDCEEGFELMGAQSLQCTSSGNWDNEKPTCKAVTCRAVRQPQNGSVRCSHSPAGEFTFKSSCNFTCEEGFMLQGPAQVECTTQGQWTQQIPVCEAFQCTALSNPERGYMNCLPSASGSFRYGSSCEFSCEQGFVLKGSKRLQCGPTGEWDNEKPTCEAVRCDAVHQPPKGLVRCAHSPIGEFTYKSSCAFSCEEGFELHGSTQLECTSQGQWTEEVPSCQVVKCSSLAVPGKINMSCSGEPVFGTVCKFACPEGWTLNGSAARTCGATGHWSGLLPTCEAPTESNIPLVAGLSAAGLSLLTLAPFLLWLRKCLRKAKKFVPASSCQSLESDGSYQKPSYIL

P-selectin [4] = molecular target: T2, P-selectin (Homo sapiens, UniProt P16109); test: Cell rolling assay with undiluted human blood, P-selectin coated device; type: cell-based; settings: heparinated whole human blood; HCRIVc device
T2 sequence (P16109 42-830): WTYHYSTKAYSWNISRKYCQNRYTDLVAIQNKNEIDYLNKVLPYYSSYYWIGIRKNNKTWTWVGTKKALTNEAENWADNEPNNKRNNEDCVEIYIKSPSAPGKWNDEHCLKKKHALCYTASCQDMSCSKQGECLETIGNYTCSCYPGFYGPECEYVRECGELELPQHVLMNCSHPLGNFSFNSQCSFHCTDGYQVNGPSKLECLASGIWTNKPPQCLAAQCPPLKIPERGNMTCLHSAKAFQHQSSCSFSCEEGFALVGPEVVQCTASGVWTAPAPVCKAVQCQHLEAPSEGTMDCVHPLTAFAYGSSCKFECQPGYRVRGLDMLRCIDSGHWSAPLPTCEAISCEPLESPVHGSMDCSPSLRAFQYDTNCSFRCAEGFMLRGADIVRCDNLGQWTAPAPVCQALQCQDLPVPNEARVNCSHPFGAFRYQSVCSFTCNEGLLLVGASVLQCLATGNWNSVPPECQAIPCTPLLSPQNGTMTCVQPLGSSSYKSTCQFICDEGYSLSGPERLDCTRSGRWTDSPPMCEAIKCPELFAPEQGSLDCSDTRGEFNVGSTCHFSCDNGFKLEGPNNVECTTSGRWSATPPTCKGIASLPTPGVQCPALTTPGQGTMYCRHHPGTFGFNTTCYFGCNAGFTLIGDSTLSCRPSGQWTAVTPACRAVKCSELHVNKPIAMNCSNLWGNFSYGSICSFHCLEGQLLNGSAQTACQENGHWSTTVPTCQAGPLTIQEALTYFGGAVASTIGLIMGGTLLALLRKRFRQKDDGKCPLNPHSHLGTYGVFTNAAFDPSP
Procedure: (§1) This device was previously coated either P-selectin or E-selectin as described above. 50 μl heparinated whole human blood (1 mg/ml heparin was added to the blood) was introduced into the first reservoir of the “Y” shape device shown in FIG. 12. The human blood was moved from the reservoir into the channel by a syringe pump at optimum flow rate for the device (see Table II) and the main flow channel, about 1-2 cm from intersection of “Y”, was observed under the microscope for 15 minutes.
(§2) 50 μl of a mixture of inhibitor and heparinated blood was placed into the second reservoir and introduced into the channel for 3-10 minutes.

E-selectin [5] = molecular target: T1, E-selectin; test: Cell rolling assay with undiluted human blood, E-selectin coated device; type: cell-based; settings: heparinated whole human blood; HCRIVc device
Procedure: as §1, §2

P-selectin [6] = molecular target: T2, P-selectin; test: Cell rolling of neutrophils on P-selectin coated microchip; type: cell-based; settings: concentration not given
Procedure: In preparation for cell rolling, the channels were coated with the desired selectin by methods similar to those set forth in Example VII.
To study cell rolling, two reservoirs leading to one channel were filled with cells. The contents of both the first and second reservoir (cells only) were drawn into the channel and cell rolling was observed.
The HCRIVa microchip was coated with 20 μg/ml P-selectin by methods similar to that described in Example VII and incubated for two hours. Isolated human neutrophils were moved through the rolling microchip with a flow rate of 10 μl/min. (approx. 800/cm shear rate=40 dynes/cm^2 shear force).

Compound: CNc1ccc2oc(C[C@H]3O[C@@]4(CC[C@H]3C)O[C@H]([C@H](C)C(=O)c3ccc[nH]3)[C@H](C)C[C@H]4C)nc2c1C(=O)O [A23187, calcimycin]
time at the mixing point until lymphocyte showed fluorescence caused by calcium influx (human lymphocytes [1]): 4 s

Compound: CCCCCCCCCCCCOS(=O)(=O)[O-].[Na+] [SDS, Sodium dodecyl sulfate]
scattered light signal from the cells (canine erythrocytes; 3 mM SDS in deionized water, PMT 2.5 mm downstream of mixing point, PCRD2 device): signal dropped | total time elapsed for lysis of the marked cells (three frames) (canine erythrocytes; 3 mM SDS, COPI device, double-T region, 130 V/cm): 0.3 s | lysis of erythrocytes (hemolysis) in a flowing stream (canine erythrocytes; anionic detergent mixed with cell stream at an intersection): lysed cells sufficiently rapidly

Compound: COc1ccc(CCN(C)CCCC(C#N)(c2ccc(OC)c(OC)c2)C(C)C)cc1OC (centres unmarked) [verapamil]
activation in calcium flux (human lymphocytes [2]; 100 μM, incubated four minutes, activator A23187): significant reduction | fluorescence of inhibitor treated lymphocyte after activation with A23187 (human lymphocytes [2]; 100 μM, incubated four minutes, twenty individual lymphocytes): no fluorescence | inhibition of calcium influx (human lymphocytes [2]; lymphocytes incubated for 30 seconds in the mixing channel): no inhibition

inhibition of rolling of the neutrophils in the presence of E-selectin (E-selectin [3]): took a longer time to inhibit rolling | inhibition of leukocyte rolling in whole blood in the presence of P-selectin (P-selectin [4]): took a longer time to inhibit rolling | inhibition of leukocyte rolling in whole blood in the presence of E-selectin (E-selectin [5]): took a longer time to inhibit rolling | inhibition of rolling of the neutrophils in the presence of P-selectin (P-selectin [6]): took a longer time to inhibit rolling
Compound: Fucoidine
